Measured values as given in ChEMBL document CHEMBL1201862, “PubChem BioAssay data set” (2004).
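Briefly, cells in 96-well plates were exposed to five compound concentrations for 48 h, and endpoints were estimated by linear interpolation. At the GI50, growth is halved.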 Active and inactive are the calls of the source. No stated cut-off is given here; in the data, active = GI50 up to about 1.1 µM and inactive = higher. Peptide text beside a SMILES is read from it. * marks the point of attachment. Boc = CC(C)(C)OC(=O)*

Experiments:
Experiment in all cases: NCI anticancer screen, dose series, 48 h
MCF7 = test system: MCF7
CAKI-1 = test system: CAKI-1
T47D = test system: T47D
Malme-3M = test system: Malme-3M
HCT-15 = test system: HCT-15
HCT-116 = test system: HCT-116
BT-549 = test system: BT-549
EKVX = test system: EKVX
TK-10 = test system: TK-10
MDA-N = test system: MDA-N
SN12C = test system: SN12C
SNB-75 = test system: SNB-75
786-0 = test system: 786-0
COLO 205 = test system: COLO 205
CCRF-CEM = test system: CCRF-CEM
SF-295 = test system: SF-295
HL-60 = test system: HL-60
UO-31 = test system: UO-31
HT-29 = test system: HT-29
OVCAR-4 = test system: OVCAR-4

SMILES | GI50 (MCF7) | GI50 (CAKI-1) | GI50 (T47D) | GI50 (Malme-3M) | GI50 (HCT-15) | GI50 (HCT-116) | GI50 (BT-549) | GI50 (EKVX) | GI50 (TK-10) | GI50 (MDA-N) | GI50 (SN12C) | GI50 (SNB-75) | GI50 (786-0) | GI50 (COLO 205) | GI50 (CCRF-CEM) | GI50 (SF-295) | GI50 (HL-60) | GI50 (UO-31) | GI50 (HT-29) | GI50 (OVCAR-4)
C=C[C@@]1(C)CC2(C=C(CO)C(O)O2)Oc2c1c(=O)oc1cccc(C)c21 (stereo not given in full) | 6.62 µM (inactive) | 4.61 µM (inactive) | 10.7 µM (inactive) | 4.85 µM (inactive) | 2.39 µM | 1.74 µM (inactive) | 3.35 µM (inactive) | 17.1 µM (inactive) | 17.6 µM (inactive) | 4.03 µM (inactive) | 9.86 µM (inactive) | 14.8 µM (inactive) | 1.98 µM (inactive) | 9.08 µM (inactive) | 1.58 µM (inactive) | 27.7 µM (inactive) | 1.77 µM (inactive) | 5.31 µM (inactive) | 4.69 µM (inactive) | 3.78 µM (inactive)
C#CC1(O)C(COP(=O)(O)OCC2OC(n3ccc(NCCCCCCCCCCCCCCCCCC)nc3=O)C(O)C2O)OC(n2ccc(N)nc2=O)C1O (stereo not given) | 0.059 µM (active) | 0.161 µM (active) | 1.18 µM (inactive) | 0.745 µM (active) | 0.353 µM | 0.245 µM (active) | 2.73 µM (inactive) | 8.24 µM (inactive) | 0.401 µM (active) | 1.14 µM (inactive) | 0.488 µM (active) | 2.67 µM (inactive) | 4.22 µM (inactive) | 0.71 µM (active) | 0.929 µM (active) | 0.349 µM (active) | 0.298 µM (active) | 0.0716 µM (active) | 0.518 µM (active) | 1.82 µM (inactive)
Cc1cccc2c1CC(C1OC(=O)c3c(C)cccc31)C2=O (stereo not given) | > 100 µM (inactive) | > 100 µM (inactive) | > 100 µM (inactive) | > 100 µM (inactive) | > 100 µM | > 100 µM (inactive) | > 100 µM (inactive) | > 100 µM (inactive) | > 100 µM (inactive) | > 100 µM (inactive) | > 100 µM (inactive) | > 100 µM (inactive) | > 100 µM (inactive) | > 100 µM (inactive) | > 100 µM (inactive) | > 100 µM (inactive) | > 100 µM (inactive) | > 100 µM (inactive) | > 100 µM (inactive) | > 100 µM (inactive)
CCCC(=O)OCC1OC(n2cc(F)c(=O)[nH]c2=O)C(F)C1OC(=O)CCC (stereo not given) | 0.6 µM (active) | 23.1 µM (inactive) | > 100 µM (inactive) | 36.6 µM (inactive) | > 100 µM | 21.5 µM (inactive) | 13.9 µM (inactive) | 50 µM (inactive) | 49.3 µM (inactive) | > 100 µM (inactive) | 19.2 µM (inactive) | 43.5 µM (inactive) | 18.2 µM (inactive) | 36.4 µM (inactive) | 7.64 µM (inactive) | 49.2 µM (inactive) | > 100 µM (inactive) | 69.7 µM (inactive) | 45.4 µM (inactive) | 5.61 µM (inactive)
CCOC(=O)C(Cc1c2ccccc2cc2ccccc12)(NC(C)=O)C(=O)OCC | 2.99 µM (inactive) | 20 µM (inactive) | 35.8 µM (inactive) | > 100 µM (inactive) | > 49.3 µM | 48.9 µM (inactive) | 99.8 µM (inactive) | > 100 µM (inactive) | > 100 µM (inactive) | > 83.9 µM (inactive) | > 100 µM (inactive) | > 19.8 µM (inactive) | 76.4 µM (inactive) | > 53.2 µM (inactive) | 56.4 µM (inactive) | > 65.9 µM (inactive) | 34.4 µM (inactive) | > 85.9 µM (inactive) | > 86.9 µM (inactive) | 40.4 µM (inactive)
C#C/C=C\CCCCCCCCCCCCCC/C=C\CCCCC#CC(O)C#CCCCC/C=C\CCCCCC/C=C/C(O)C#C (stereo not given) | 5.62 µM (inactive) | 7.69 µM (inactive) | 7.21 µM (inactive) | 17.1 µM (inactive) | 22.5 µM | 4.67 µM (inactive) | > 71.9 µM (inactive) | 17 µM (inactive) | 21.6 µM (inactive) | 3.8 µM (inactive) | 24.2 µM (inactive) | 42.7 µM (inactive) | 11.8 µM (inactive) | 14.1 µM (inactive) | 5.25 µM (inactive) | 17.7 µM (inactive) | 13 µM (inactive) | 15.6 µM (inactive) | 18.3 µM (inactive) | 6.38 µM (inactive)
COCN1CCN=c2c1c1c3c(c4ccccc4n23)CCC1 | > 100 µM (inactive) | > 100 µM (inactive) | > 100 µM (inactive) | > 100 µM (inactive) | > 100 µM | > 100 µM (inactive) | > 100 µM (inactive) | > 100 µM (inactive) | > 100 µM (inactive) | > 100 µM (inactive) | > 100 µM (inactive) | > 100 µM (inactive) | > 100 µM (inactive) | > 100 µM (inactive) | > 100 µM (inactive) | > 100 µM (inactive) | > 100 µM (inactive) | > 100 µM (inactive) | > 100 µM (inactive) | > 100 µM (inactive)
CCOC(=O)C(C)c1nc2cc(F)c(F)cc2[nH]c1=O (stereo not given) | > 100 µM (inactive) | > 100 µM (inactive) | 22.9 µM (inactive) | > 100 µM (inactive) | > 100 µM | > 100 µM (inactive) | > 100 µM (inactive) | > 100 µM (inactive) | > 100 µM (inactive) | > 100 µM (inactive) | > 100 µM (inactive) | > 100 µM (inactive) | > 100 µM (inactive) | > 100 µM (inactive) | > 100 µM (inactive) | > 100 µM (inactive) | > 100 µM (inactive) | > 100 µM (inactive) | > 100 µM (inactive) | > 100 µM (inactive)
COC(=O)C(Cc1ccccc1)NC(=O)C(CS)NC(=O)OC(C)(C)C (stereo not drawn) (Boc-Cys-Phe-OMe; configuration not given here) | 73.5 µM (inactive) | > 100 µM (inactive) | > 100 µM (inactive) | > 100 µM (inactive) | > 100 µM | 41.9 µM (inactive) | > 100 µM (inactive) | > 100 µM (inactive) | > 100 µM (inactive) | > 100 µM (inactive) | > 100 µM (inactive) | > 100 µM (inactive) | > 100 µM (inactive) | > 100 µM (inactive) | 21.8 µM (inactive) | > 100 µM (inactive) | 27.7 µM (inactive) | 74.1 µM (inactive) | 99.3 µM (inactive) | 32.1 µM (inactive)
